In BigSolDB 2.1:

O=[N+]([O-])c1ccc(O)c2ncccc12
solubility (mole fraction)
Details | in acetic acid | in acetone | in acetonitrile | in ethanol | in ethyl acetate | in isopropanol | in methanol | in n-butanol | in n-propanol | in toluene
278.15 K | 0.00224 | 0.00398 | 0.00113 | 0.000575 | 0.00339 | 0.0005 | 0.000443 | 0.000606 | 0.000562 | 0.00229
280.65 K | 0.00239 | 0.00429 | 0.00124 | 0.000625 | 0.00369 | 0.000548 | 0.000486 | 0.000663 | 0.000608 | 0.00247
283.15 K | 0.00259 | 0.00461 | 0.00137 | 0.000682 | 0.004 | 0.000605 | 0.000531 | 0.000726 | 0.000675 | 0.00269
285.65 K | 0.0028 | 0.00498 | 0.00151 | 0.00075 | 0.00437 | 0.000672 | 0.000586 | 0.000797 | 0.000748 | 0.00293
288.15 K | 0.00303 | 0.00538 | 0.00165 | 0.00082 | 0.00476 | 0.000741 | 0.000643 | 0.000867 | 0.000814 | 0.00317
290.65 K | 0.00328 | 0.0058 | 0.0018 | 0.000901 | 0.00517 | 0.000816 | 0.000701 | 0.000961 | 0.000899 | 0.00345
293.15 K | 0.00355 | 0.00624 | 0.00197 | 0.000988 | 0.00564 | 0.000897 | 0.000763 | 0.00105 | 0.00099 | 0.00377
295.65 K | 0.00383 | 0.00668 | 0.00214 | 0.00108 | 0.0061 | 0.000974 | 0.00083 | 0.00116 | 0.00109 | 0.00408
298.15 K | 0.00416 | 0.00721 | 0.00233 | 0.00118 | 0.00667 | 0.00107 | 0.000904 | 0.00128 | 0.00119 | 0.00444
300.65 K | 0.00449 | 0.00773 | 0.00256 | 0.00128 | 0.00724 | 0.00118 | 0.000981 | 0.00139 | 0.00131 | 0.00481
303.15 K | 0.00484 | 0.00831 | 0.00279 | 0.00139 | 0.00786 | 0.00129 | 0.00107 | 0.00153 | 0.00143 | 0.00518
305.65 K | 0.0052 | 0.00888 | 0.00304 | 0.00152 | 0.00857 | 0.00141 | 0.00116 | 0.00166 | 0.00157 | 0.00562
308.15 K | 0.00559 | 0.00956 | 0.00334 | 0.00166 | 0.00929 | 0.00154 | 0.00127 | 0.0018 | 0.0017 | 0.00609
310.65 K | 0.00601 | 0.0103 | 0.00366 | 0.00182 | 0.01 | 0.00168 | 0.00138 | 0.00197 | 0.00186 | 0.0066
313.15 K | 0.00649 | 0.0111 | 0.00403 | 0.00199 | 0.0109 | 0.00183 | 0.00149 | 0.00217 | 0.00204 | 0.00715
